Experimental data taken from patent publication US11793885B2, “Substituted benzo[5,6][1,4]diazepino[1,2-a]indoles for the treatment of proliferative disorders” (priority 2017, dated 2023).
Where two headings read alike, the source gives them in different places.

Tests used:
[1] = system: Namalwa (Burkitt's lymphoma); assay: in vitro cytotoxicity assay, Namalwa cells; type: cell-based, human; conditions: free cytotoxic compound
Text: (§1) Following cell lines were used for the study: KB (cervical carcinoma, ATCC), NCI-H2110 (Non Small Cell Lung Carcinoma, ATCC), Namalwa (Burkitt's lymphoma, ATCC), Ishikawa (endometrial adenocarcinoma, ECACC), EOL-1 (Acute Myeloid Leukemia, ECACC), JEG-3 (choriocarcinoma, ATCC), JHOS-4 (ovarian adenocarcinoma, Riken Bioresource Center), OV-90 (ovarian adenocarcinoma, ATCC), SKOV-6 (ovarian adenocarcinoma, Memorial Sloan Kettering Cancer Center), Igrov-1 (ovarian adenocarcinoma, National Cancer Institute), KB-GRC1-MDR (cervical carcinoma/Pgp positive, gift from Dr. Roninson at the Ordway Research Institute) and T47D (breast epithelial cancer, ATCC). The cells were maintained and plated for the cytotox experiments in media recommended by the manufacturers. Cells were plated in the 96-well flat bottom plates at a seeding density of 800 cells per well (Ishikawa, JEG-3 or SK-OV-6), 1,000 cells per well (KB, Namalwa, EOL-1, OV-90 and Igrov-1) or 2,000 cell per well (NCI H2110, JHOS-4 and T47D). Conjugates or free drug compounds were diluted in RPMI-1640 (Life Technologies) supplemented with heat-inactivated 100 FBS (Life Technologies) and 0.1 mg/ml gentamycin (Life Technologies), and added to the plated cells. To determine specificity of cytotoxic activity of the conjugates an excess of unconjugated antibody was added to a separate set of diluted conjugates (+block samples, IC50 table). The plates were incubated at 37° C., 500 CO2 for either 4 days (JHOS-4 and T47D cells) or 5 days (KB, NCI H2110, Ishikawa, EOL-1, JEG-3, OV-90, SK-OV-6, NC-H441 and Igrov-1 cells). Alamar blue assay (Invitrogen) was used to determine viability of JHOS-4 and T47D cells, and WST-8 assay (Donjindo Molecular Technologies, Inc.) was applied for viability of KB, NCI H2110, Namalwa, Ishikawa, EOL-1, JEG-4, OV-90, SK-OV-6, NCI-H4441 and Igrov-1 cells. The assays were performed in accordance with the manufacturer's protocols. Killing curves and IC50 were generated using a sigmoidal dose-response nonlinear regression curve fit (GraphPad Software Inc.).

[2] = system: NCI-H2110 (Non Small Cell Lung Carcinoma); assay: in vitro cytotoxicity assay, NCI-H2110 cells; type: cell-based; conditions: free cytotoxic compound, 5 days
Text: as §1

[3] = system: EOL-1 (Acute Myeloid Leukemia); assay: in vitro cytotoxicity assay, EOL-1 cells; type: cell-based; conditions: Homo sapiens, EOL1, 120 h; free cytotoxic compound; 5 days
Text: as §1

[4] = system: KB (cervical carcinoma); assay: in vitro cytotoxicity assay, KB cells; type: cell-based, human; conditions: free cytotoxic compound, 5 days
Text: as §1

[5] = system: Ishikawa (endometrial adenocarcinoma); assay: in vitro cytotoxicity assay, Ishikawa cells; type: cell-based; conditions: free cytotoxic compound, 5 days
Text: as §1

[6] = system: KB-GRC1-MDR (cervical carcinoma/Pgp positive); assay: cells; conditions: read-out: IC50 KB-MDR
Text: Following cell lines were used for the study: KB (cervical carcinoma, ATCC), NCI-H2110 (Non Small Cell Lung Carcinoma, ATCC), Namalwa (Burkitt's lymphoma, ATCC), Ishikawa (endometrial adenocarcinoma, ECACC), EOL-1 (Acute Myeloid Leukemia, ECACC), JEG-3 (choriocarcinoma, ATCC), JHOS-4 (ovarian adenocarcinoma, Riken Bioresource Center), OV-90 (ovarian adenocarcinoma, ATCC), SKOV-6 (ovarian adenocarcinoma, Memorial Sloan Kettering Cancer Center), Igrov-1 (ovarian adenocarcinoma, National Cancer Institute), KB-GRC1-MDR (cervical carcinoma/Pgp positive, gift from Dr. Roninson at the Ordway Research Institute) and T47D (breast epithelial cancer, ATCC). The cells were maintained and plated for the cytotox experiments in media recommended by the manufacturers. Cells were plated in the 96-well flat bottom plates at a seeding density of 800 cells per well (Ishikawa, JEG-3 or SK-OV-6), 1,000 cells per well (KB, Namalwa, EOL-1, OV-90 and Igrov-1) or 2,000 cell per well (NCI H2110, JHOS-4 and T47D). […] To determine specificity of cytotoxic activity of the conjugates an excess of unconjugated antibody was added to a separate set of diluted conjugates (+block samples, IC50 table). The plates were incubated at 37° C., […] for either 4 days (JHOS-4 and T47D cells) or 5 days (KB, NCI H2110, Ishikawa, EOL-1, JEG-3, OV-90, SK-OV-6, NC-H441 and Igrov-1 cells). Alamar blue assay (Invitrogen) was used to determine viability of JHOS-4 and T47D cells, and WST-8 assay (Donjindo Molecular Technologies, Inc.) was applied for viability of KB, NCI H2110, Namalwa, Ishikawa, EOL-1, […], OV-90, SK-OV-6, […] and Igrov-1 cells. The assays were performed in accordance with the manufacturer's protocols. Killing curves and IC50 were generated using a sigmoidal dose-response nonlinear regression curve fit (GraphPad Software Inc.).

[7] = system: T47D (breast epithelial cancer); assay: in vitro cytotoxicity assay, T47D cells; type: cell-based; conditions: Homo sapiens, 96 h, read-out: IC50 T47D
Experimental: The cells were maintained and plated for the cytotox experiments in media recommended by the manufacturers. Cells were plated in the 96-well flat bottom plates at a seeding density of 800 cells per well (Ishikawa, JEG-3 or SK-OV-6), 1,000 cells per well (KB, Namalwa, EOL-1, OV-90 and Igrov-1) or 2,000 cell per well (NCI H2110, JHOS-4 and T47D). Conjugates or free drug compounds were diluted in RPMI-1640 (Life Technologies) supplemented with heat-inactivated 100 FBS (Life Technologies) and 0.1 mg/ml gentamycin (Life Technologies), and added to the plated cells. To determine specificity of cytotoxic activity of the conjugates an excess of unconjugated antibody was added to a separate set of diluted conjugates (+block samples, IC50 table). The plates were incubated at 37° C., 500 CO2 for either 4 days (JHOS-4 and T47D cells) or 5 days (KB, NCI H2110, Ishikawa, EOL-1, JEG-3, OV-90, SK-OV-6, NC-H441 and Igrov-1 cells). Alamar blue assay (Invitrogen) was used to determine viability of JHOS-4 and T47D cells, and WST-8 assay (Donjindo Molecular Technologies, Inc.) was applied for viability of KB, NCI H2110, Namalwa, Ishikawa, EOL-1, JEG-4, OV-90, SK-OV-6, NCI-H4441 and Igrov-1 cells. The assays were performed in accordance with the manufacturer's protocols. Killing curves and IC50 were generated using a sigmoidal dose-response nonlinear regression curve fit (GraphPad Software Inc.).

[8] = Phase I clinical evaluation; cited from earlier work

| SMILES | IC50 ([1]; Homo sapiens) | IC50 ([2]; NCI-H2110, 120 h) | IC50 [3] | IC50 ([4]; Homo sapiens, KB, 120 h) | IC50 ([5]; Homo sapiens, Ishikawa, 120 h) | further results |
| --- | --- | --- | --- | --- | --- | --- |
| COC(=O)c1cc2cc(NC(=O)c3cc(NC(=O)CCCOc4cc5c(cc4OC)C(=O)N4c6ccccc6C[C@H]4C=N5)cn3C)ccc2s1 [Compound 7] | 0.02 nM |  |  |  |  |  |
| COC(=O)CCNC(=O)c1cc2cc(NC(=O)c3cc(NC(=O)CCCOc4cc5c(cc4OC)C(=O)N4c6ccccc6C[C@H]4C=N5)cn3C)ccc2s1 [Compound 9] | 0.03 nM | 0.2 nM | 0.01 nM | 0.04 nM | 0.07 nM |  |
| COc1cc2c(cc1OCCCC(=O)Nc1ccc(-c3cc(C(=O)NCC(C)(C)S)n(C)c3)cc1)NC(S(=O)(=O)O)[C@@H]1Cc3ccccc3N1C2=O (stereo partly shown) [Compound 30] | 0.7 nM |  | 0.1 nM |  |  |  |
| COc1cc2c(cc1OCc1cccc(CC(=O)Nc3cc(C(=O)Nc4ccc(-c5cc(C(=O)NCC(C)(C)S(C)=S)n(C)c5)cc4)n(C)c3)c1)N=C[C@@H]1Cc3ccccc3N1C2=O (stereo partly shown) [Compound 55] |  |  |  |  |  | IC50 [2]: 2 nM; IC50 [1]: 4 nM; IC50 [4]: 9 nM |
| COC(=O)c1cc2cc(NC(=O)c3cc(Nc4cccc(COc5cc6c(cc5OC)C(=O)N5c7ccccc7C[C@H]5C=N6)c4)cn3C)ccc2s1 [Compound 63] | 0.3 nM | 3 nM |  | 1 nM | 0.6 nM | IC50 [6]: > 5 nM |
| COc1cc2c(cc1OCCCC(=O)Nc1nc(C)c(C(=O)Nc3ccc4sc(C(=O)NCC(C)(C)S(C)=S)cc4c3)s1)N=C[C@@H]1Cc3ccccc3N1C2=O (stereo partly shown) [Compound 81] |  |  |  |  |  | IC50 [2]: > 5 nM; IC50 ([6]; free cytotoxic compound): > 5 nM; IC50 [1]: 3 nM; IC50 [4]: > 5 nM; IC50 [5]: > 5 nM |
| COc1cc2c(cc1OCCCC(=O)Nc1cc(C(=O)Nc3ccc(-c4cc(C(=O)NCC(C)(C)SSC)n(C)c4)cc3)n(C)c1)N=C[C@@H]1Cc3ccccc3N1C2=O [Compound 85] | 0.03 nM | 0.1 nM | 0.008 nM | 0.01 nM | 0.1 nM | IC50 [6]: > 5 nM |
| COc1cc2c(cc1OCCCC(=O)Nc1cn(C)c(C(=O)Nc3ccc4nc(C(=O)NCC(C)(C)S(C)=S)n(C)c4c3)n1)N=C[C@@H]1Cc3ccccc3N1C2=O (stereo partly shown) [Compound 99] |  |  |  |  |  | IC50 [2]: 1 nM; IC50 [1]: 0.1 nM; IC50 [4]: 0.5 nM; IC50 [5]: 0.7 nM |
| COc1cc2c(cc1OCCCC(=O)Nc1cn(C)c(C(=O)Nc3ccc(-c4cc(C(=O)NCC(C)(C)SSC)n(C)c4)cn3)n1)N=C[C@@H]1Cc3ccccc3N1C2=O [Compound 103] | 0.02 nM | 0.2 nM |  | 0.07 nM | 0.05 nM | IC50 [6]: 0.4 nM |
| COc1cc2c(cc1OCCCC(=O)Nc1cn(C)c(C(=O)Nc3ccc(-c4csc(C(=O)NCC(C)(C)SSC)n4)cc3)n1)N=C[C@@H]1Cc3ccccc3N1C2=O [Compound 113] | 0.07 nM | 0.4 nM |  | 0.2 nM | 0.2 nM | IC50 [6]: 3 nM |
| COc1cc2c(cc1OCCCC(=O)Nc1ccc(C(=O)Nc3cc(C(=O)NCC(C)(C)S(C)=S)n(C)c3)nc1)N=C[C@@H]1Cc3ccccc3N1C2=O (stereo partly shown) [Compound 117] |  |  |  |  |  | IC50 [2]: 2 nM; IC50 ([6]; free cytotoxic compound): > 5 nM; IC50 [1]: 0.3 nM; IC50 [4]: 0.6 nM; IC50 [5]: 1 nM |
| COc1cc2c(cc1OCCCC(=O)Nc1cn(C)c(C(=O)NCc3cccc(C(=O)NCC(C)(C)S(C)=S)c3)n1)N=C[C@@H]1Cc3ccccc3N1C2=O (stereo partly shown) [Compound 121] |  |  |  |  |  | IC50 [2]: 2 nM; IC50 ([6]; free cytotoxic compound): > 5 nM; IC50 [1]: 0.6 nM; IC50 [4]: 2 nM; IC50 [5]: 2 nM |
| COc1cc2c(cc1OCCCC(=O)Nc1cn(C)c(C(=O)Nc3ccc(-c4cc(C(=O)NCC(C)(C)SSC)n(C)c4)cc3)n1)N=C[C@@H]1Cc3ccccc3N1C2=O [Compound 125] | 0.01 nM | 0.06 nM | 0.004 nM | 0.04 nM | 0.05 nM | IC50 [6]: 0.9 nM |
| COc1cc2c(cc1OCCCC(=O)Nc1cc(C(=O)Nc3cc(C(=O)NCC(C)(C)SSC)n(C)c3)n(C)c1)N=C[C@@H]1Cc3ccccc3N1C2=O [Compound 132] | 0.09 nM | 2 nM | 0.04 nM | 0.4 nM |  |  |
| COc1cc2c(cc1OCCCC(=O)Nc1cn(C)c(C(=O)Nc3ccc4sccc4c3)n1)N=C[C@@H]1Cc3ccccc3N1C2=O [Compound 137] | 0.02 nM | 0.1 nM | 0.01 nM | 0.05 nM |  |  |
| COC(=O)CCNC(=O)c1cc2cc(NC(=O)c3nc(NC(=O)CCCOc4cc5c(cc4OC)C(=O)N4c6ccccc6C[C@H]4C=N5)cn3C)ccc2s1 [Compound 142] | 0.01 nM |  | 0.006 nM |  |  |  |
| COc1cc2c(cc1OCCCC(=O)Nc1cn(C)c(C(=O)Nc3ccc(N)cc3)n1)N=C[C@@H]1Cc3ccccc3N1C2=O [Compound 149] | 0.06 nM | 0.4 nM |  | 0.2 nM | 0.1 nM |  |
| COc1cc2c(cc1OCCCC(=O)Nc1cn(C)c(C(=O)Nc3ccc4sc(C(=O)NCC(C)(C)SSC)cc4c3)n1)N=C[C@@H]1Cc3ccccc3N1C2=O [Compound 155] | 0.03 nM |  | 0.009 nM |  |  |  |
| COC(=O)CCNC(=O)c1nc(NC(=O)c2cc3cc(NC(=O)CCCOc4cc5c(cc4OC)C(=O)N4c6ccccc6C[C@H]4C=N5)ccc3o2)cn1C [Compound 180] | 0.3 nM | 2 nM |  | 1 nM |  |  |
| COC(=O)CCNC(=O)c1cc2cc(NC(=O)c3cc(NC(=O)CCCOc4cc5c(cc4OC)C(=O)N4c6ccccc6C[C@H]4C=N5)cn3C)ccc2o1 [Compound 185] | 0.2 nM | 0.5 nM |  | 0.2 nM |  |  |
| COC(=O)CCNC(=O)c1cc2cc(NC(=O)c3nc(NC(=O)CCCOc4cc5c(cc4OC)C(=O)N4c6ccccc6C[C@H]4C=N5)cn3C)ccc2o1 [Compound 188] | 0.06 nM | 0.5 nM | 0.02 nM | 0.08 nM |  |  |
| COc1cc2c(cc1OCCCCNC(=O)c1cc(NC(=O)c3cc(NC(=O)CCC(C)(C)SSC)cn3C)cn1C)N=C[C@@H]1Cc3ccccc3N1C2=O [Compound 192] | 0.4 nM | 2 nM |  | 0.9 nM |  |  |
| COC(=O)CCNC(=O)c1cc2cc(NC(=O)c3cc(NC(=O)CCCOc4cc5c(cc4OC)C(=O)N4c6ccccc6C[C@H]4C=N5)cn3CCCNC(=O)OC(C)(C)C)ccc2o1 [Compound 199] | > 0.5 nM | 5 nM |  | 1 nM |  | IC50 [2]: 3 nM |
| COc1cc2c(cc1OCCCC(=O)Nc1cccc(C(=O)Nc3cc(C(=O)NCC(C)(C)SSC)n(C)c3)n1)N=C[C@@H]1Cc3ccccc3CN1C2=O [Compound 205] | 0.1 nM | 0.8 nM |  | 0.4 nM | 0.3 nM | IC50 [6]: 4 nM |
| COc1cc2c(cc1OCCCC(=O)Nc1cn(C)c(C(=O)Nc3ccc(-c4cc(C(=O)NCC(C)(C)SSC)n(C)c4)cc3)n1)N=C[C@@H]1Cc3ccccc3CN1C2=O [Compound 206] | 0.001 nM | 0.01 nM |  | 0.006 nM | 0.004 nM | IC50 [6]: 0.1 nM |
| COC(=O)c1cc2cc(NC(=O)c3cc(NC(=O)NCCOc4cc5c(cc4OC)C(=O)N4c6ccccc6C[C@H]4C=N5)cn3C)ccc2s1 [Compound 214] |  | > 5 nM |  | > 5 nM |  |  |
| COC(=O)c1cc2cc(NC(=O)c3cc(NCCCCOc4cc5c(cc4OC)C(=O)N4c6ccccc6C[C@H]4C=N5)cn3C)ccc2s1 [Compound 216] |  | 9 nM |  | 0.5 nM |  | IC50 [7]: 2 nM |
| C=C1C[C@H]2C=Nc3cc(OCCCOc4cc5c(cc4OC)C(=O)N4CC(=C)C[C@H]4C=N5)c(OC)cc3C(=O)N2C1 [SJG-136] |  |  |  |  |  | maximum tolerated dose [8]: 45 μg/m^2 |
